Measured values as given in patent publication US8779004B2, “Stable emulsion formulations” (Amgen, Inc., priority 2006, dated 2014).

Test: Solubility of calcimimetics in oil phases (RP-HPLC)
Format: physicochemical
Details: oil or lipid, thermodynamic from solid
Description: The solubility measurements of the compounds were prepared by the addition of 1 g of drug substance to two milliliters of oil into a Wheaton 5 mL vial. The headspace was sparged with nitrogen, and enclosed with a West 4405/50 gray Teflon coated stopper and manually sealed by an aluminum overseal. The preparations were repeated again with the oils containing either purified egg or soy lecithin. All labeled vials were shaken at room temperature for eighteen hours on a platform shaker. After eighteen hours, the samples were diluted in mobile phase, and analyzed by the RP-HPLC method. Table 2 summarizes solubility results (expressed in mg/mL) of cinacalcet in various oil phases.

With `C[C@@H](NCCCc1cccc(C(F)(F)F)c1)c1cccc2ccccc12` [Cinacalcet, N-(1-(R)-(1-naphthyl)ethyl]-3-[3-(trifluoromethyl)phenyl]-1-aminopropane] the solubility at 18 h (Long Chain Triglycerides (oil phase) with egg lecithin, Long Chain Triglycerides, Egg lecithin) was over 362 mg/mL, the solubility at 18 h (Long Chain Triglycerides (oil phase) with soy lecithin, Long Chain Triglycerides, Soy lecithin) was over 304 mg/mL and the solubility at 18 h (Long Chain Triglycerides (oil phase), Long Chain Triglycerides, no lecithin) was over 340 mg/mL. It also gave a solubility at 18 h (Medium Chain Triglycerides (oil phase) with egg lecithin, Medium Chain Triglycerides, Egg lecithin) of over 349 mg/mL, a solubility at 18 h (Medium Chain Triglycerides (oil phase) with soy lecithin, Medium Chain Triglycerides, Soy lecithin) of over 327 mg/mL and a solubility at 18 h (Medium Chain Triglycerides (oil phase), Medium Chain Triglycerides, no lecithin) of over 341 mg/mL. For the same compound, the solubility at 18 h (Structured Triglycerides (oil phase) with egg lecithin, Structured Triglycerides, Egg lecithin) was over 339 mg/mL, the solubility at 18 h (Structured Triglycerides (oil phase) with soy lecithin, Structured Triglycerides, Soy lecithin) was over 317 mg/mL and the solubility at 18 h (Structured Triglycerides (oil phase), Structured Triglycerides, no lecithin) was over 368 mg/mL.
